Source: patent US11952364B2, “TRK inhibitors useful as anticancer drugs” (TYLIGAND BIOSCIENCE (SHANGHAI) LIMITED, priority 2018, dated 2024)

Key:
P450 3A4 = P450 3A4 (Homo sapiens (Human), UniProt P08684); assay: Cytochrome P450 inhibition in human liver microsomes; type: in vitro ADME
Method: The test compounds were evaluated by detecting the metabolism of human liver microsomes for the substrates of different subtypes of Cyp450. The liver microsomes (Sekisui XenoTech, LLC., human liver microsomes, cat. #H0610) were slowly melted on ice, and 0.482 mL of the liver microsome solution (20 mg/mL) was added to 30 mL of 100 mM potassium phosphate solution to prepare a liver microsome working solution with a concentration of 0.316 mg/mL. The test compound and specific inhibitors of different Cyp450 subtypes (as a control) were prepared into 10 mM DMSO solutions, and then 20 μL of the 10 mM DMSO compound solution was added to 180 μL of acetonitrile to obtain a 1 mM compound solution. 2 μL of such 1 mM test compound or inhibitor solution was added to 150 μL of 0.316 mg/mL liver microsome working solution to obtain a 13.16 μM compound working solution. 45.3 mg of NADPH (SIGMA, cat. #V900362) was weighted and added into 13.59 mL of deionized water to prepare a 4 mM NADPH aqueous solution. 0.2 mL of 2 mg/mL internal standard stock solution (dexamethasone in acetonitrile) was added to 1000 mL of acetonitrile (SIGMA, cat. #271004) to prepare a reaction stop solution and stored at 4° C. […] The single point IC50 values were calculated according to the following formula. […]

[1] = biological target: kinases listed in Table 10; assay: KINOMEscan kinase panel (kinase profile); type: binding, human
Method: (§1) The experiment was performed according to the standard kinase activity determination protocol by Eurofins DiscoverX Corporation (11180 Roselle St. Suite D, San Diego, CA, USA, www.discoverX.com). Specifically, the experiment was conducted using the KINOMEscan™ screening platform, which adopts an active site-directed competition binding assay to quantitatively measure the interaction between test compounds and more than hundreds of human kinases and disease-related mutants. The working principle of the screening platform and kinase assay methods are well known in the art, for example, see www.discoverX.com.
The experiment was performed according to the standard kinase activity determination protocol by Eurofins DiscoverX Corporation (11180 Roselle St. Suite D, San Diego, CA USA, www.discoverX.com).

DDR2 = DDR2 (Homo sapiens (Human), UniProt Q16832); assay: KINOMEscan competition binding assay
Sequence of DDR2 (Q16832 22-855): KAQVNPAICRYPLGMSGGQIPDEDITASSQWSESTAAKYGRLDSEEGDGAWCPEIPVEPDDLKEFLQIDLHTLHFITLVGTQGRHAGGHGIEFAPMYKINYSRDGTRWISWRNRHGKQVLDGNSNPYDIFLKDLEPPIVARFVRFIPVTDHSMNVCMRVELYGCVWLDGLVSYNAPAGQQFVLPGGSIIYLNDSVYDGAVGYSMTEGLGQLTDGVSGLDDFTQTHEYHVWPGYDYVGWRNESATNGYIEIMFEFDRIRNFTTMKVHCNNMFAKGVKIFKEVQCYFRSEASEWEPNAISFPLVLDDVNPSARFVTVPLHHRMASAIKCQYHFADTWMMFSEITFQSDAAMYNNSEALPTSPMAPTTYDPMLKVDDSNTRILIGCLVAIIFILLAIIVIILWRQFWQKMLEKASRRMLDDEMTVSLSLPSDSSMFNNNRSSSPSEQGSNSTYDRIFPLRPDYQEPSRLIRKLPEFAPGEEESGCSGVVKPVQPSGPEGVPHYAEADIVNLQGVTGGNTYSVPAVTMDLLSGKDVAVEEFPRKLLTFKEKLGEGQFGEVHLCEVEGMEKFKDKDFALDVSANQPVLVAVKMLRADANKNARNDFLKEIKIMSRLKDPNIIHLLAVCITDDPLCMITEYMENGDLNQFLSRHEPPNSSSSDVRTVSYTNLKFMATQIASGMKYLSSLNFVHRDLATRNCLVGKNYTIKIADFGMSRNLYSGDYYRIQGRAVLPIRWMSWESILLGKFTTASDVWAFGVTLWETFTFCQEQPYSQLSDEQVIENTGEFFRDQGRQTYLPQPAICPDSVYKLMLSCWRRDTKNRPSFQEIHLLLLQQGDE
Method: as §1

KIT(V559D) = KIT(V559D) (Homo sapiens (Human), UniProt P10721, V559D); assay: KINOMEscan competition binding assay
Sequence of KIT(V559D) (P10721 26-976 V559D): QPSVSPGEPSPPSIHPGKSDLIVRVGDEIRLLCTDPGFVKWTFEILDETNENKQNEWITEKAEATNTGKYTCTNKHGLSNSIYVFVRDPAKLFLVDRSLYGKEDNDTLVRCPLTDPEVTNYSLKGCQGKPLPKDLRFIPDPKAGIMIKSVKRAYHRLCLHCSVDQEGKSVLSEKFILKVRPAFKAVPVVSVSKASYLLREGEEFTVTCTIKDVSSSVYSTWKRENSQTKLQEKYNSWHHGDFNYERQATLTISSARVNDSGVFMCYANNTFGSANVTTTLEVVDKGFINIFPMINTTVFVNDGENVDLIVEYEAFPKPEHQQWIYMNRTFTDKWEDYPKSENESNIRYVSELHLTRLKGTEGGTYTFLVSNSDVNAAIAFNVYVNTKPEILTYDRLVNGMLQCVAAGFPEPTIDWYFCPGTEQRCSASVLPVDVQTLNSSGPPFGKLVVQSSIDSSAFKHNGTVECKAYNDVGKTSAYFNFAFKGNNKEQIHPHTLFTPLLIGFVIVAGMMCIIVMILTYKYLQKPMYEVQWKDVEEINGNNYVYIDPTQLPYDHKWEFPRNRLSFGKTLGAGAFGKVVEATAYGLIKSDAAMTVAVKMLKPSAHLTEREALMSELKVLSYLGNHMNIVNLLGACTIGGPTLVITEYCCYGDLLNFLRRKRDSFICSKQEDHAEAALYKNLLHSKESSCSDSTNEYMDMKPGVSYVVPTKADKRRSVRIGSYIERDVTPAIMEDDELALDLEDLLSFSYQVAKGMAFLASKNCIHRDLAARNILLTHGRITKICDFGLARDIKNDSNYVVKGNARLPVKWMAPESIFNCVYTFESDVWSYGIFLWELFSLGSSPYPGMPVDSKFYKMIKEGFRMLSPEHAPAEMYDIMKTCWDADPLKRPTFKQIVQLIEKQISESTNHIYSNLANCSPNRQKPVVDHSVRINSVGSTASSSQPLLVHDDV
Method: as §1

FLT3(ITD) = assay: KINOMEscan competition binding assay; design: species or system human; conditions: 2 μM
Method: as §1

[2] = tested on: TRK Fusion-Positive Cancers; conditions: cited from earlier work

Sequence of P450 3A4 (P08684 whole entry): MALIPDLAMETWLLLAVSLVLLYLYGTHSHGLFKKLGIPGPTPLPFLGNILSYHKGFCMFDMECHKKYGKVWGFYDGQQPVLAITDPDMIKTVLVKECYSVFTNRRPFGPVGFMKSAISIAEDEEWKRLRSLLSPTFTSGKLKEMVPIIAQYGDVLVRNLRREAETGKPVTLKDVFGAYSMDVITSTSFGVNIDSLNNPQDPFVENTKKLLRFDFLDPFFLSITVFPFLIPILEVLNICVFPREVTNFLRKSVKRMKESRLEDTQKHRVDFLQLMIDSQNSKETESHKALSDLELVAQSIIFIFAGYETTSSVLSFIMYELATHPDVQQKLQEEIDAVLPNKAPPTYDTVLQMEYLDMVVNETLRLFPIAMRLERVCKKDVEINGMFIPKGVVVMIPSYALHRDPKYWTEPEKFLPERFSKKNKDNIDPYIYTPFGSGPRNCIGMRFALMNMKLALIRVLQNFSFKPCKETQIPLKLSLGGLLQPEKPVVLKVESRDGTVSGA

SMILES	IC50 (P450 3A4) [µM]	kinase activity profile compared with Merestinib ([1]; 2 μM, FIG. 2, kinases with a difference of inhibition rate >20%)	inhibitory activity on the kinases listed in Table 10 ([1]; concentration of 2 μM) [%]	inhibition at 2 µM (DDR2) [%]	inhibition at 2 µM (KIT(V559D)) [%]	% inhibition (FLT3(ITD)) [%]	patients had no disease progression ([2]; after 1 year of treatment) [%]	patients still responded to treatment ([2]; after 1 year of treatment) [%]	overall patient response rate (ORR) ([2]; patients, more than ten tumor types) [%]	complete response ([2]; patients) [%]	partial response ([2]; patients) [%]
COc1ccc(C(=O)Nc2ccc(Oc3cc4cnn(C)c4cc3-c3cn[nH]c3)c(F)c2)c(=O)n1-c1ccc(F)cc1 [Example 12, N-(3-fluoro-4-(1-methyl-6-(1H-pyrazol-4-yl)-1H-indazol-5-yloxy)phenyl)-1-(4-fluorophenyl)-6-methoxy-2-oxo-1,2-dihydropyridine-3-carboxamide]	> 10	significantly different trend in the kinase activity profile	> 90	100	100	98					
O=C(Nc1cnn2ccc(N3CCC[C@@H]3c3cc(F)ccc3F)nc12)N1CC[C@H](O)C1 [LOXO-101, Larotrectinib, reference compound]							55	71	75	13	62
